From US11278525B1, “Further molecules, compositions and methods for modulation of SIRT6” (SirTLab Corporation, priority 2017, dated 2022)

Key:
SIRT6 [1] = molecular target: T1, SIRT6 (Homo sapiens, UniProt Q8N6T7); experiment: Secondary validation assays: HPLC deacylation, fluorometric deacetylation, in vitro histone deacetylation; assay type: biochemical; conditions: values only in FIGS. 1-3
Description: The activating effect of three compounds (ChemDiv ID E677-1326, E677-0945 and D715-0284) for SIRT6 was validated by conducting the following secondary assays. As previously described, D715-0284 is a stereoisomer of molecule 768382-41-8.
1. HPLC deacylation assay. SIRT6 was incubated with compounds and myristoyl-lysine peptide (corresponding to TNF-alpha sequence) at 37° C. The deacylation reactions were analyzed by reversed phase high-performance liquid chromatography on Kinetex C18 column by monitoring the formation of the deacylated product at 214 nm. […] Equally diluted DMSO served as control.
2. Fluorometric deacetylation assay. SIRT6 was incubated with compounds and fluorophore-labelled acetyl-lysine peptide (corresponding to histone H3 sequence) at 37° C. […] Results are expressed as a percentage of DMSO—treated control.
3. In vitro histone deacetylation assay. Chromatin was purified from HEK293T cells by two steps of lysis (with Nonidet P-40 lysis buffer). SIRT6 was incubated with chromatin proteins and the reaction mixture is then used for Western blot analysis. […] SIRT6 (0.5 μM) was incubated with chromatin fractions isolated from HEK293T cells in the presence of 10 micromolar NAD+ and compound D715-0284 or DMSO (control) at 37° C.

SIRT6 [2] = molecular target: T1, SIRT6; experiment: SIRT6 enzymatic activity assay with fluorophore (AMC)-labeled Lysin-myristoylated histone H3 peptide (de-myristoylation, trypsin release); assay type: biochemical; parameters: six-histidine tag; made in house; host or cells: Escherichia coli BL21; conditions: for % activity 20 uM: compound 20 uM; for % activity 20 uM / % activity Max. conc. 100 uM: percentage of signal increase relative to control wells, Tables 1-2; for % activity Max. conc. 100 uM: compound 100 uM; for % Activity: amount tested 20 uM, Example 5, Table 9
Description: Human recombinant SIRT6 (sequence identifier: CAG33481.1; GI:4814651) was expressed in large scale in Escherichia coli strain BL21 as a six-histidine-tagged protein, after transformation of the expression plasmid pET28-SIRT6. The SIRT6 enzyme was purified from the bacteria culture broth in a two-step strategy. The first purification step was carried out by cation exchange chromatography on a HiTrap CM-Sepharose column (GE Healthcare) using an FPLC system. The second purification step was performed by immobilized metal ion affinity chromatography (IMAC) using a cobalt affinity column (Clontech).
The enzymatic activity assay is carried out in 96 or 384-well microplates using the purified recombinant SIRT6 and a fluorophore-labeled peptide substrate: 7-amino-4-methylcoumarin (AMC) that is quenched through conjugation to the C-terminal end of a Lysin-myristoylated histone H3 peptide. The activity assay procedure requires two steps, both performed in the same microplate. In the first step, the substrate is incubated with the purified SIRT6 protein along with the co-substrate nicotinamide adenine dinucleotide (NAD+). Upon de-myristoylation, the liberated ε-amino group of the lysine becomes a trypsin substrate. Treatment with trypsin in the second step releases the fluorophore resulting in an increase in fluorescence. Fluorescence intensity is measured using a fluorescent plate reader (excitation and emission at 370 nm and 450 nm, respectively). The fluorescence signal is directly proportional to SIRT6 enzymatic activity.
In the primary screening, compounds from a library (ChemDiv Inc.) were tested at a single concentration of 20 micromolar for their potential to modulate SIRT6 enzymatic activity. The assay was carried out in 384-well black well plates and all liquid handling was done using a robotic liquid handler. Purified recombinant SIRT6 (1 micromolar) was pre-incubated with each compound (or DMSO in control wells) for 15 minutes at room temperature. The first stage of the assay was initiated by adding a ‘substrate solution’ containing the myristoylated histone H3 peptide and NAD+(for final concentrations of 25 micromolar and 20 micromolar, respectively). After one hour incubation at 37° C., a Trypsin solution (6 mg/mL) was added for 30 minutes at room temperature. Fluorescence intensity was measured using a fluorescent plate reader (Tecan) with excitation at 370 nm and emission at 450 nm. The effect of each tested compound was evaluated by the change in the fluorescence intensity compared to control wells. […] To validate the primary screening results, each of the primary “hits” was re-tested, first at concentration of 20 micromolar in duplicates and later at a serial dilution ranging from 100 to 0.2 micromolar in triplicates.
Results of Assay—The results of the assay are given below in Tables 1-3.
Additional molecules were tested according to the methods and materials of Example 1. The amount tested was 20 uM for each molecule.

T1 sequence (Q8N6T7 whole entry): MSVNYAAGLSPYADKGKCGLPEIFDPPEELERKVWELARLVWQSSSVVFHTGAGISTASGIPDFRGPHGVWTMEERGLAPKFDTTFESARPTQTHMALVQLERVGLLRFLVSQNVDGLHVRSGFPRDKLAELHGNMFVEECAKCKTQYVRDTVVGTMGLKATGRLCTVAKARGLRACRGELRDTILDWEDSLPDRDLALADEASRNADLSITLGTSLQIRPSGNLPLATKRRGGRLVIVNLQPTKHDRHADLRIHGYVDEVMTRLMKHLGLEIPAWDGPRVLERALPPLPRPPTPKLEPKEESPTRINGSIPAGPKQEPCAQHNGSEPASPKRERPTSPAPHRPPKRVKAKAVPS

Structure (SMILES)	activating effect for SIRT6 in secondary assays (in words) (SIRT6 [1])	% activity 20 uM (SIRT6 [2]) [%]	% activity Max. conc. 100 uM (SIRT6 [2]) [%]	% Activity (SIRT6 [2]) [%]
Cc1cccc2sc(N(CCCN(C)C)C(=O)CCOc3ccccc3)nc12 [E677-0945]	validated	263	255	
CN(C)CCCN(C(=O)CCOc1ccccc1)c1nc2c(F)cccc2s1 [E677-1326]	validated	287	252	
CCOC(=O)CCc1c(C)c2ccc(OC(=O)c3cccc(OC)c3)c(C)c2oc1=O [Y041-1765]				80
CCCCCCc1c(C)c2cc3c(-c4ccc(F)cc4)coc3c(C)c2oc1=O [Y041-6500]				21
